Laboratory results: patent publication US10996215B2, “Methods for determining drug efficacy for the treatment of diffuse large B-cell lymphoma, multiple myeloma, and myeloid cancers” (CELGENE CORPORATION, priority 2013, dated 2021)
Residues, ends and D or L forms follow the SMILES beside them. *: point of attachment. Cbz = O=C(OCc1ccccc1)*

What was measured:
ZFP91, Aiolos = experiment: Western blot of ZFP91 and Aiolos in OCI-LY10 cells; type: cell-based; details: for levels of ZFP91 and Aiolos: 6 hrs, 100 mM thalidomide, 10 mM lenalidomide, 1 mM pomalidomide, 1 μM or 10 μM Compound A, 100 nM Compound B, FIG. 17A
From the text: (§1) Cells were harvested with RIPA buffer, and proteins from cell lysates were separated by 10% sodium dodecyl sulfate polyacrylamide (SDS-PAGE) gel electrophoresis (Bio-Rad), and transferred to PVDF membranes (Invitrogen). Immunoblots were probed with antibodies recognizing Aiolos (9-9-7; Celgene), CK1α(Abcam), GSPT1 (Sigma), ZFP91 (LSBio) and β-actin (Li-Cor). Signals were detected with a Li-Cor Odyssey imager.
Immunoblots were probed with antibodies recognizing Aiolos (9-9-7; Celgene), GSPT1 (Sigma), ZFP91 (LSBio) and β-actin (Li-Cor). Signals were detected with a Li-Cor Odyssey imager.
as §1, with “OCI-LY10 cells treated with DMSO or various drugs for 6 hrs. Cells” for “Cells”, “buffer” for “buffer,”, “recognizing:” for “recognizing”
OCI-LY10 cells were then treated with DMSO or various drugs for 6 hrs. […] Cells were harvested with RIPA buffer and Proteins from cell lysates were separated by 10% sodium dodecyl sulfate polyacrylamide (SDS-PAGE) gel electrophoresis (Bio-Rad), and transferred to PVDF membranes (Invitrogen). Immunoblots were probed with antibodies recognizing: Aiolos (9-9-7; Celgene), ZFP91 (LSBio), ZNF198 (LSBio) and β-actin (Li-Cor). Signals were detected with a Li-Cor™ Odyssey imager.
OCI-LY10 cells stably transduced with shCRBN 11 were induced for 48 hrs with either 0 or 10 ng/ml of doxycycline. […] Where MLN4924 treatments were present, MLN4924 was pre-incubated for 1 hr prior to drug treatment. Cells were harvested with RIPA buffer and Proteins from cell lysates were separated by 10% sodium dodecyl sulfate polyacrylamide (SDS-PAGE) gel electrophoresis (Bio-Rad), and transferred to PVDF membranes (Invitrogen). Immunoblots were probed with antibodies recognizing: CRBN-65, Aiolos (9-9-7; Celgene), Ikaros (Millipore), ZFP91 (LSBio) and β-actin (Li-Cor). Signals were detected with a Li-Cor Odyssey imager.

[1] = tested on: TMD8 (ABC) or Karpas 422 (GCB) cells; experiment: competition with lenalidomide for CRBN, 3H-thymidine proliferation; type: cell-based; details: TMD8 or Karpas 422; co-treatment with 10 μM lenalidomide; competition of binding to the CRBN complex
Aiolos, Ikaros, ZFP91 [2] = experiment: CRBN dependence of ZFP91 reduction in U266 cells, Western blot; type: cell-based; details: for compound-induced reduction of Aiolos, Ikaros, and ZFP91 after inhibitor pretreatment: 10 mM MLN4924 or MG132 for 1 hr, then compounds 6 hr; for destruction of Aiolos, Ikaros, and ZFP91 (CRBN dependent pathway): 6 hour
Protocol: U266 cells were transduced with inducible shRNA constructs targeting CRBN or targeting luciferase as control. Cells were grown in the presence or in the absence of 10 ng/ml Doxycycline, and in the presence or in the absence of 1 μM pomalidomide. Cells were harvested and were treated in cell lysis buffer to generate cell lysates. Proteins from cell lysate were separated by gel electrophoresis and transferred to nitrocellulose membranes. Immunoblots were then probed with antibodies recognizing Aiolos, CRBN, Ikaros, ZFP91, IRF4, IFIT1, IFIT3, P-STAT1, and β-actin (Li-Cor).
Cells were harvested, and lysates were run on 10% SDS-PAGE and immunoblotted with the appropriate antibodies.
MG132 activates c-Jun N-terminal kinase (JNK1), which initiates apoptosis. […] MLN4924 is a NAE1 inhibitor that blocks the activity of Cullin Ring Ligases (CRLs), such as CRL4^CRBN. […] Cells were harvested and lysates were run on 10% SDS-PAGE, transferred to nitrocellulose and immunoblotted with the corresponding antibodies.

CSNK1A1 (CK1α), Ikaros = experiment: MG-132, MLN-4924 or Compound A pre-treatment, Western analysis in HNT-34 cells; type: cell-based; details: for LEN-mediated CK1α reduction after inhibitor pretreatment: FIG. 27B
NF-κB activation = details: cited from earlier work
IFN pathway = experiment: effect on IFN pathway (FIG. 13); type: cell-based
Aiolos, Ikaros, ZFP91 [3] = experiment: Western blot in myeloma, lymphoma and primary B cells; type: cell-based; details: U266, DF15, RPMI8226, OCI-LY10, WSU-DLCL2, WSU-DLCL2 Compound A resistant, primary B cells; 8 hours
Protocol: Multiple myeloma cells (U266, DF15, RPMI8226), diffuse large B cell lymphoma cells (OCI-LY10, WSU-DLCL2, WSU-DLCL2 Compound A resistant), and primary B cells were treated with DMSO, […] or […] for 8 hours. Cells were harvested and were treated in cell lysis buffer to generate cell lysates. Proteins from cell lysate were separated by gel electrophoresis (10% SDS-PAGE) and transferred to nitrocellulose membranes. Immunoblots were then probed with antibodies recognizing Aiolos, CRBN, Ikaros, ZFP91 (LSBio), IRF4, IRF7, Myc, and β-actin (Li-Cor).

In the case of `O=C1CCC(N2Cc3c(OCc4ccc(CN5CCOCC5)cc4)cccc3C2=O)C(=O)N1` (stereo not shown) [Compound B, 3-[4-(4-Morpholin-4-ylmethyl-benzyloxy)-1-oxo-1,3-dihydro-isoindol-2-yl]-piperidine-2,6-dione], the “levels of ZFP91 and Aiolos” value (ZFP91, Aiolos; OCI-LY10) is reported as “reduced”.

For `Cc1ccc(NC(=O)NCc2ccc3c(c2)CN(C2CCC(=O)NC2=O)C3=O)cc1Cl` (stereo not shown) [Compound C, 1-(3-chloro-4-methylphenyl)-3-((2-(2,6-dioxopiperidin-3-yl)-1-oxoisoindolin-5-yl)methyl)urea], the “anti-proliferative effects on co-treatment with lenalidomide” value [1] was “blocks anti-proliferative effects of Compound C”.

With `CC(C)C[C@@H](C=O)NC(=O)[C@H](CC(C)C)NC(=O)[C@H](CC(C)C)NC(=O)OCc1ccccc1` [MG132] (Cbz-Leu-Leu-Leu-aldehyde) the “compound-induced reduction of Aiolos, Ikaros, and ZFP91 after inhibitor pretreatment” value (Aiolos, Ikaros, ZFP91 [2]) was “blocked”, the “CSNK1A1 protein levels in the presence of lenalidomide” value (CSNK1A1 (CK1α), Ikaros; 3 μM or 10 μM MG-132 pre-treatment 30 min) was “stabilized” and the “LEN-mediated CK1α reduction after inhibitor pretreatment” value (CSNK1A1 (CK1α), Ikaros) was “abrogated”. For the same compound, the IC50 (NF-κB activation) was 3000 nM.

For `NS(=O)(=O)OC[C@@H]1C[C@@H](n2ccc3c(N[C@H]4CCc5ccccc54)ncnc32)C[C@@H]1O` [MLN4924], the “level of both Aiolos and ZFP91 in drug-treated cells after MLN-4924 pre-treatment” value (ZFP91, Aiolos; OCI-LY10, 10 μM MLN-4924 1 hour prior to drug, FIG. 17C) was “restored”, the “Aiolos and ZFP91 degradation in response to Compound A” value (ZFP91, Aiolos; OCI-LY10, 10 μM MLN-4924 pretreatment 1 hour, FIG. 14B) was “blocked” and the “level of both Aiolos and ZFP91 in drug-treated cells after MLN-4924 pre-treatment” value (ZFP91, Aiolos; OCI-LY10 shCRBN 11, lenalidomide or Compound A 6 hours, MLN4924 1 hr pre-incubation, FIG. 17D) was “restored”. The “compound-induced reduction of Aiolos, Ikaros, and ZFP91 after inhibitor pretreatment” value (Aiolos, Ikaros, ZFP91 [2]) was “blocked” and the “LEN-mediated CK1α reduction after inhibitor pretreatment” value (CSNK1A1 (CK1α), Ikaros) was “abrogated”.

In the case of `Nc1cccc2c1C(=O)N(C1CCC(=O)NC1=O)C2=O` (stereo not shown) [pomalidomide], the “IFIT1, IFIT3, DDX58, XAF1, IFIH1, and OAS3 protein expression” value (IFN pathway; FIG. 13A) is reported as “upregulates”, the “DDX58, IFI27, IFIT1, IFIT3, DDX58, and XAF1 gene expression” value (IFN pathway; FIG. 13B) is reported as “upregulates” and the “ISG15 and OAS3 gene expression” value (IFN pathway; FIG. 13C) is reported as “upregulates”. The IRF changes (IFN pathway; FIG. 13E) was “induces”, the “IFIT1 and IFIT3 protein expression” value (IFN pathway; FIG. 13F) was “upregulates” and the IKKE protein level (IFN pathway; FIG. 13F) was “reduces”. For the same compound, the “TBK1 phosphorylation (TBK1-PO4)” value (IFN pathway; FIG. 13F) was “upregulates”, the “levels of STAT or phosphorylated STAT” value (IFN pathway; FIG. 13G) was “induces changes” and the “levels of ZFP91 and Aiolos” value (ZFP91, Aiolos; OCI-LY10) was “reduced”. The “levels of Aiolos, Ikaros, and ZFP91” value (Aiolos, Ikaros, ZFP91 [3]) was “reduced”, the “pomalidomide induced reductions of Aiolos, Ikaros, and ZFP91 when CRBN knocked down by shRNA” value (Aiolos, Ikaros, ZFP91 [2]; 1 μM pomalidomide, 10 ng/ml Doxycycline) was “blocked” and the “destruction of Aiolos, Ikaros, and ZFP91 (CRBN dependent pathway)” value (Aiolos, Ikaros, ZFP91 [2]) was “induced”.

In the case of `O=C1CCC(N2C(=O)c3ccccc3C2=O)C(=O)N1` (stereo not shown) [thalidomide], the “levels of ZFP91 and Aiolos” value (ZFP91, Aiolos; OCI-LY10) is reported as “reduced” and the “destruction of Aiolos, Ikaros, and ZFP91 (CRBN dependent pathway)” value (Aiolos, Ikaros, ZFP91 [2]) is reported as “induced”.
